According to PMC4603696, “Discovery and characterization of novel small-molecule inhibitors targeting nicotinamide phosphoribosyltransferase” (Scientific Reports, 2015):
“Also recorded” adds a separate entry of the source. Where two headings read alike, the source gives them in different places.

Tests used:
NMNAT = target: T1, NMNAT (Mus musculus, UniProt Q9EPA7); experiment: Isothermal titration calorimetry (ITC); type: binding; details: 554 μM MS0 into 25 μM protein, 25 °C
T1 construct: His-tag; made in house; host or cells: E. coli BL21-CodonPlus (DE3)-RIL
T1 sequence (Q9EPA7 whole entry): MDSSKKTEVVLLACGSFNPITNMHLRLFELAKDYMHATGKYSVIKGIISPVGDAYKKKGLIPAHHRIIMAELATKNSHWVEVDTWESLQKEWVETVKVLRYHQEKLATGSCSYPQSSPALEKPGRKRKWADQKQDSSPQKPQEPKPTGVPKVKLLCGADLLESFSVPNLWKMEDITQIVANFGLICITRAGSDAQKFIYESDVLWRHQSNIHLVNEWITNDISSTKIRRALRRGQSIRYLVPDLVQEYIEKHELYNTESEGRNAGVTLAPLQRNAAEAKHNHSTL
Protocol: Thermodynamic parameters of small molecule binding to protein were determined using a MicroCal VP-ITC calorimeter. NMNAT protein solutions were ultrafiltrated in Amicon Ultra-0.5 Centrifugal Filter Unit (Merck Millipore) against buffer [20 mM Tris (pH 7.5), 20 mM NaCl], which was subsequently used to prepare a matched compound solution. […] Measurements were performed at 25 °C with spacing of 90 s between injections.
Pr otei n e xp ressi on andpur ification
Prot eins were expres se d and pur ified by our pr e vi ous methods2,3. […]
The pur ity of the pr ot ein was more tha n 90% de term ine d by SDS-PAGE and Coo massi e Blue (Tiange n, C hi na) staining and f ur the r by w est ern bl ot a na lysi s (Fig. S1).
High t hrou ghput sc reen ing (HTS)
HTS was pe rfor med usi ng our previ ously repor ted method 3. 0.5 μl st oc k of each com poun d (1 mM DMSO st oc k) was transf erred to a 96-well PCR pl ate for sc ree ni ng. […] Fina lly, 85 μl mixt ur es in each well were transf erred int o a flat-bottom 96-well black plate (Greiner) , and the fluoresc enc e (F) was measured usi ng a Teca n Inf inity M200 pl ate reader (Tecan Group Lt d.) by se tting the exc itation and emissi on wave leng th to 382 nm and 445nm respe ctive ly. […]

HepG2 cells = experiment: Sulforhodamine B protein staining (SRB) assay in HepG2; type: cell-based, human; details: for IC50: Homo sapiens
Protocol: (§1) Sulfor hod am ine B p rotei n st ai ning (SRB) assay
(§2) Cell pr oliferat ion was eva lua ted by sul for hod amine B pr ot ein st aini ng (SRB) assa y10-12.
(§3) Briefly, cel ls were se ede d int o 96-well pl ates, cul tur ed overni ght , and trea ted with correspond ing com poun ds for 72 h. Cells were the n fixe d with 10% trichl or oa cetic aci d and st ained with sul for hoda mine B (Sigm a). Sul for hoda mine B in the cells was di sso lved in 10 mmol/L Tris-HCl and was measured at 515 nm usi ng a multiw ell spect ropho tometer (VERSA max, Mol ecul ar Devi ces, Sunnyva le, CA). The inhi bi tion rat e on cell pr olif eratio n was cal culated for each well as (A515contr ol cells-A 515tr eated cells)/A515contr ol cells×100 % (A515:
(§4) OD va lue at 515 nm ). The averag e IC50 va lue s were de termine d by Logit method from at leas t t hr eei nde pe nde nt test s.

A549 cells = experiment: SRB assay in A549; type: cell-based, human
Protocol: as §1, §2, §3, §4

[1] = system: ovarian cancer cell line A2780; experiment: SRB assay in A2780; type: cell-based, human; details: A2780, 72 hours
Protocol: as §1, §2, §3, §4

[2] = system: metastatic lung cancer cell line 95-D; experiment: SRB assay in 95-D; type: cell-based, human; details: 72 hours
Protocol: as §1, §2, §3, §4

NAMPT = details: read-out: biochemical potency IC50; reported independently by Zheng et al. ref 19, 22; cited from earlier work

**Q.** Which “interaction with NMNAT by ITC” value (NMNAT) does the source give for `O=S(=O)(c1ccc(NC(=S)NCc2cccnc2)cc1)N1CCCCC1` [MS0] here?
**A.** did not detect an interaction; also recorded: does not show detectable interaction

**Q.** What about the “growth inhibition (SRB, in words)” value (HepG2 cells; HepG2, 72 hours) of the same compound?
**A.** potent growth inhibition

**Q.** What about the IC50 (HepG2 cells; HepG2, 72 h, read-out: SRB assay in HepG2: IC50, HepG2, second test, 2-fold concentration gradient, 72 hours) of the same compound?
**A.** ~3 µM

**Q.** What about the IC50 (HepG2 cells; HepG2, read-out: anti-proliferation IC50, initial screen, HepG2, SRB, 10-fold concentration gradient) of the same compound?
**A.** < 5 µM

**Q.** And the “growth inhibition (SRB, in words)” value (A549 cells; A549, 72 hours)?
**A.** potent growth inhibition

**Q.** What about the IC50 (A549 cells; Homo sapiens, A549, read-out: anti-proliferation IC50, initial screen) of the same compound?
**A.** < 5 µM

**Q.** And the “growth inhibition (SRB, in words)” value [1]?
**A.** potent growth inhibition

**Q.** What about the “growth inhibition (SRB, in words)” value [2] of the same compound?
**A.** potent growth inhibition
